The results in this text go back to the METLIN SMRT retention time set (Domingo-Almenara et al. 2019).

SMILES strings stand for the structures.

The data set in a line: gradient 5% acetonitrile 3 min, to 50% in 2 min, to 85% in 15 min, held 3 min, 100 µL/min. The conditions noted are these: column: Zorbax Extend-C18 2.1 x 50 mm; eluents: water / acetonitrile, 0.1% formic acid. The gist of the method:
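The system's dead and dwell volumes were 40 μL and 900 μL, with a Zorbax Extend-C18 column (2.1 × 50 mm, 1.8 μm) run at 100 μL/min in water and acetonitrile containing 0.1% formic acid each. Pure standards were analyzed in mixtures of ~100 molecules by HPLC–quadrupole time-of-flight mass spectrometry in positive and negative ionization mode. Retention time was assigned from computationally picked, manually inspected adduct peaks.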
`O=C(Cn1c(=O)c2cccn2c2ccc(F)cc21)N1CCCCC1` had an RP-LC retention time of 795 s.

The compound `CCN1CCN(C(=O)CS(=O)Cc2cnn(-c3ccccc3)c2-n2cccc2)CC1` (configuration not stated) displayed an RP-LC retention time of 614 s.

On to `O=C(Nc1nccnc1C(=O)NC1CCCC1)c1ccccc1`, for which the RP-LC retention time amounted to 934 s.

Consider `CN1c2cc(C(=O)NCc3ccc(F)cc3F)ccc2C(=O)N2CCCCC21` (configuration not stated), for which the RP-LC retention time was 813 s.

Consider `CCCCC(=O)Nc1nc(-c2ccc3c(c2)N(C)C(=O)CO3)cs1`, for which the RP-LC retention time was determined as 900 s.

`CCc1ccc(S(=O)(=O)N2CCC3(CC2)NCCN=C3NCc2ccc(F)cc2)cc1` came in with an RP-LC retention time of 753 s.

`O=C(NC1CCCCCCC1)c1nnc(-c2ccc(S(=O)(=O)N3CCCCC3)cc2)o1` returned an RP-LC retention time of 754 s.

Take `CCCc1c(C(=O)OCC)cnc2nc(-c3ccccc3)nn12`: the RP-LC retention time was determined as 1120 s.

`COc1ccc(NS(=O)(=O)c2cc(-c3nc(C)c(C(=O)N4CCCC4)s3)n(C)c2)c(OC)c1` came in with an RP-LC retention time of 794 s.

In turn, `Cc1cc(C)cc(NC(=O)N(C)CCc2noc(COc3ccccc3)n2)c1` had an RP-LC retention time of 949 s.

In turn, `O=C(C1CC1)N1CCc2sc(S(=O)(=O)Nc3ccc(F)cc3Cl)cc2C1` yielded an RP-LC retention time of 870 s.

`O=C(Nc1nnc(-c2ccccc2Cl)o1)c1cccc([N+](=O)[O-])c1` showed an RP-LC retention time of 767 s.

`CCCN(C)c1nccn2c(=O)n(CC(=O)Nc3cccc(C)c3)nc12`: the RP-LC retention time came to 687 s.

In turn, `O=C(Nc1cccc(Cl)c1)C(=O)c1c[nH]c2ccccc12` yielded an RP-LC retention time of 1040 s.

`COc1ccc(C2CC(=O)c3cnc4c(c3C2)c(=O)n(C)c(=O)n4C)cc1` (configuration not stated) showed an RP-LC retention time of 913 s.

With `CC1=NS(=O)(=O)N(C)C=C1C(=O)OCc1noc(-c2ccccc2Cl)n1`, the RP-LC retention time is 975 s.

In turn, `COc1ccc(-c2csc(C)n2)cc1S(=O)(=O)N1CCN(c2ccccc2F)CC1` came in with an RP-LC retention time of 1110 s.

`Cc1ccc(C)c(-c2nnc(NC(=O)c3ccc4c(c3)OCCO4)o2)c1` gave an RP-LC retention time of 921 s.

The compound `CCOc1cc(=O)n2c(c1C(=O)NCC1CCCCC1)CCCCC2` yielded an RP-LC retention time of 772 s.

Take `Cn1nc(CNC(=O)C2(c3ccccc3)CC2)c2c1CCN(S(C)(=O)=O)C2`: the RP-LC retention time worked out at 694 s.

For the compound `CCN1C(=O)c2cccnc2Sc2cc(NC(=O)c3cccs3)ccc21`, the RP-LC retention time was found to be 796 s.

Take `Cc1noc(-c2ccc(NC(=O)c3cc(=O)c4ccccc4o3)cc2)n1`: the RP-LC retention time turned out to be 790 s.

For `O=C(CC1CCCC1)NCCn1c(=O)n(Cc2ccc(F)cc2)c2cccnc21`, the RP-LC retention time amounted to 814 s.

In turn, `CCCCN(CCCC)C(=O)C1CCCN1S(=O)(=O)c1cccc2nsnc12` (configuration not stated) showed an RP-LC retention time of 1080 s.

In turn, `CCN1CCn2cc(S(=O)(=O)NCc3ccccc3C(F)(F)F)cc2C1=O` displayed an RP-LC retention time of 760 s.

For `CCn1cc(-c2ccc(C)cc2)cc1C(=O)O`, the RP-LC retention time was 898 s.

`O=C(NCc1cccc(C(F)(F)F)c1)C1(CCO)CCN(c2ncccn2)C1` (configuration not stated) showed an RP-LC retention time of 669 s.

Take `CC(C)CNC(=O)C1CCN(c2cnn(Cc3ccccc3)c(=O)c2)CC1`: the RP-LC retention time stood at 745 s.

Take `COc1ccc(N2CC(C(=O)NC(C(=O)N3CCCc4ccccc43)c3ccccc3)CC2=O)cc1` (configuration not stated): the RP-LC retention time was found to be 900 s.

`Cc1nc2cc(-c3noc(-c4ccc(C(F)(F)F)cc4)n3)ccc2n(C)c1=O` had an RP-LC retention time of 1180 s.

`COc1cccc(NC(=O)NCc2cc(C)oc2C)c1OC` displayed an RP-LC retention time of 815 s.

As for `Cc1nn(-c2ccccc2)c2c1N(CC(=O)NC(C)c1ccccc1)C(=O)CS2` (configuration not stated), the RP-LC retention time amounted to 845 s.

As to `COc1ccccc1CNC(=O)C1CCCN(c2cnc3nccnc3c2)C1` (configuration not stated), the RP-LC retention time stood at 689 s.

For `CCCn1ccc2oc(C)c(C(=O)NCc3ccc(Cl)cc3)c2c1=O`, the RP-LC retention time was found to be 814 s.

As for `Cc1ccc(CNC(=O)c2cn(-c3ccc(NC(=O)C(C)C)cn3)cn2)cc1`, the RP-LC retention time turned out to be 793 s.

As for `Cc1noc(CNC(=O)Cc2ccc(F)cc2)n1`, the RP-LC retention time is 643 s.

For the compound `CCc1nc2c(=O)n(CC(=O)N3CCN(c4ccccn4)CC3)nc(C)c2s1`, the RP-LC retention time amounted to 585 s.

Compound `CCn1c(C(=O)NCCCN2CCCC2=O)c(N2CCCC2=O)c2cc(OC)ccc21` came in with an RP-LC retention time of 677 s.

Consider `CCN1CCN(CCCNC(=O)Cc2c(C(=O)O)c(C)cn2CC)CC1`, for which the RP-LC retention time worked out at 563 s.

In turn, `Cc1nn(CCC(=O)NCCc2ccco2)c(=O)c2nn(-c3ccccc3)c(C)c12` came in with an RP-LC retention time of 726 s.

With `CN1CCCn2nc(C3CCN(C(=O)Nc4ccc(F)cc4)CC3)cc2C1=O`, the RP-LC retention time is 669 s.

On to `Cc1cc2nc(C(=O)NC(C)C)c(=O)n(C)c2cc1C`, for which the RP-LC retention time is 747 s.

Compound `O=C(CC(F)(F)F)N1CCC(c2noc(-c3ccccc3)n2)C1` (configuration not stated) showed an RP-LC retention time of 870 s.

`CCOc1ccccc1NC(=O)CSc1nnc(Cc2ccccc2)n1-n1cccc1`: the RP-LC retention time turned out to be 948 s.

`CCc1ccc(CNc2nc3ccccc3n2CCN(CC)CC)cc1` displayed an RP-LC retention time of 558 s.

Consider `Cc1ccc(NS(=O)(=O)c2cc(-c3[nH]ncc3C(=O)N3CCCCC3)oc2C)cc1F`, for which the RP-LC retention time was determined as 806 s.

`COC(=O)c1cccc(C(=O)N2CCc3ccccc3C2)n1` came in with an RP-LC retention time of 769 s.

For `Cc1ccn2cc(C(=O)N3CCN(c4ccccc4F)CC3)nc2c1`, the RP-LC retention time amounted to 662 s.

In turn, `CCOc1ccc(NS(=O)(=O)c2cc(C(=O)N3CCN(c4ccccc4OC)CC3)n[nH]2)cc1` yielded an RP-LC retention time of 846 s.

As for `CCCNS(=O)(=O)c1cc(-c2cc(C(F)(F)F)on2)sc1C`, the RP-LC retention time was 1090 s.

Turning to `Cc1cc(F)cc2c(=O)c3c([nH]c12)CCN(CC(=O)Nc1cccc(F)c1)C3`, the RP-LC retention time was 620 s.

In turn, `O=C(c1c(F)cccc1Cl)N1CCN(S(=O)(=O)c2cc3c4c(c2)CCC(=O)N4CCC3)CC1` showed an RP-LC retention time of 828 s.

The compound `Cc1nc2cc(-c3noc(-c4ccccc4C)n3)ccc2o1` registered an RP-LC retention time of 640 s.

Compound `COc1ccc2nc(OC3CCN(C(=O)c4ccc(S(C)(=O)=O)cc4)CC3)sc2c1` showed an RP-LC retention time of 774 s.

`Cc1nnc(-c2cn(CC(=O)Nc3ccc(F)cc3F)c3ccccc23)o1` registered an RP-LC retention time of 747 s.

In turn, `CCCNC(=O)c1cc(C)nc2c(Cl)cccc12` displayed an RP-LC retention time of 753 s.

As for `CC(C)Oc1ccc(NC(=O)C2CCN(S(C)(=O)=O)c3cc(Cl)ccc3O2)cc1` (configuration not stated), the RP-LC retention time was 1020 s.

The compound `COc1ccc(C(=O)NCc2ccccc2OC(F)(F)F)nn1` displayed an RP-LC retention time of 840 s.

`Cc1c(OC(C)C(=O)O)ccc2c1oc(=O)c1ccccc12` (configuration not stated) returned an RP-LC retention time of 847 s.

Compound `O=C(CN1CC(c2nc(-c3cccc(Cl)c3)no2)C1)NCC1CCCO1` (configuration not stated) gave an RP-LC retention time of 590 s.

For the compound `CN1CC2(CCN(C(=O)NC3CCCCC3)CC2)CC1C(=O)N1CCOCC1` (configuration not stated), the RP-LC retention time worked out at 595 s.

`CCC(C(=O)NCC(=O)Nc1nc2ccccc2[nH]1)c1ccccc1` (configuration not stated) had an RP-LC retention time of 654 s.

Regarding `O=C(Cc1csc(Nc2ncccn2)n1)Nc1ccc2c(c1)Cc1ccccc1-2`, the RP-LC retention time worked out at 845 s.

The compound `CC1CCCN(C(=O)c2cn(-c3cc(N4CCOCC4)ncn3)cn2)C1` (configuration not stated) yielded an RP-LC retention time of 709 s.

`COc1ccc(-c2cc3nn(CC(=O)NCc4cccc(OC)c4)c(=O)n3c(C)n2)cc1` registered an RP-LC retention time of 875 s.

For `CCn1ccc2sc(C)c(C(=O)NCc3ccc(F)cc3)c2c1=O`, the RP-LC retention time turned out to be 798 s.

Turning to `O=C(Cc1csc(-n2cccc2)n1)NCc1nc(-c2ccccc2)no1`, the RP-LC retention time stood at 821 s.

In turn, `Cc1ccc(Nc2nc(N3CCN(CCO)CC3)nc3c2C(=O)CCC3)cc1` showed an RP-LC retention time of 656 s.

`Cc1ccc(CNC(=O)c2cc3sccc3n2C)cc1` returned an RP-LC retention time of 958 s.

The compound `CCc1nnc(-c2ccc(NC(=O)COc3ccccc3F)cc2)o1` came in with an RP-LC retention time of 772 s.

`Cn1nc(C(=O)Nc2ccc(F)cc2)c2c1-c1cc(Cl)ccc1SC2` came in with an RP-LC retention time of 1280 s.

`Cc1ccccc1NC(=O)CN1C(=O)CCc2cc(Br)ccc21` yielded an RP-LC retention time of 884 s.

Compound `CCc1ccc(CNC(=O)c2cn3c(n2)COCC3)cc1` had an RP-LC retention time of 710 s.

Take `Cc1ccn2cc(C(=O)NCc3ccc4c(c3)OCO4)nc2c1`: the RP-LC retention time was determined as 679 s.

`O=c1n(CCOc2ccccc2)nc2c(S(=O)(=O)N3CCCC3)cccn12` gave an RP-LC retention time of 794 s.

`CC1CCN(c2cc(-c3noc(C(=O)NCc4ccco4)n3)ccn2)CC1` had an RP-LC retention time of 808 s.

Compound `Cc1ccnc(N2CCCC(C(=O)NC3CCCCC3)C2)n1` (configuration not stated) displayed an RP-LC retention time of 709 s.

The compound `Cc1ccc(CNS(=O)(=O)c2cc3c(s2)CCN(C(=O)C2CC2)C3)cc1` had an RP-LC retention time of 847 s.

The compound `COc1ccccc1C(CNC(=O)c1cc(=O)c2cc(Br)ccc2o1)N(C)C` (configuration not stated) returned an RP-LC retention time of 651 s.

For `CCc1cc(=O)n(CC(=O)Nc2cccc(Cl)c2)c(-c2ccccc2)n1`, the RP-LC retention time worked out at 1220 s.

In turn, `CCN1CCC(CCNC(=O)c2cc3c(s2)N(CC)CCCC3)CC1` displayed an RP-LC retention time of 685 s.

With `COCC(=O)N1CCCN(C2=NS(=O)(=O)C(c3ccccc3)=C2C)CC1`, the RP-LC retention time was found to be 662 s.
